Test system: 855422-203-R-J1-PDC complex spheroid viability
Assay: Anticancer human tumor 855422-203-R-J1-PDC patient-derived bladder carcinoma cell line growth inhibition [POLQ]
Conditions: for IC50: curve of first compound; for viability, T/C: stronger effect = lower value
How it was run: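 PDC + HUVEC + MSC complex spheroids; POLQ inhibitors ± partner drugs; top conc. at/near clinical Cmax, else 10 microM (SN-38 1 microM), half-log dilutions; 37 degrees C, 5% CO2.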

[1] = second compound 0.0316 µM, first compound 0.00316 µM
[2] = second compound 0.0316 µM, first compound 0.01 µM
[3] = second compound 0.0316 µM, first compound 0.0316 µM
[4] = second compound 0.0316 µM, first compound 0.1 µM
[5] = second compound 0.0316 µM, first compound 0.316 µM
[6] = second compound 0.0316 µM, first compound 1 µM
[7] = second compound 0.1 µM, first compound 0.00316 µM
[8] = second compound 0.1 µM, first compound 0.01 µM
[9] = second compound 0.1 µM, first compound 0.0316 µM
[10] = second compound 0.1 µM, first compound 0.1 µM
[11] = second compound 0.1 µM, first compound 0.316 µM
[12] = second compound 0.1 µM, first compound 1 µM
[13] = second compound 0.316 µM, first compound 0.00316 µM
[14] = second compound 0.316 µM, first compound 0.01 µM
[15] = second compound 0.316 µM, first compound 0.0316 µM
[16] = second compound 0.316 µM, first compound 0.1 µM
[17] = second compound 0.316 µM, first compound 0.316 µM
[18] = second compound 0.316 µM, first compound 1 µM
[19] = second compound 1 µM, first compound 0.00316 µM
[20] = second compound 1 µM, first compound 0.01 µM
[21] = second compound 1 µM, first compound 0.0316 µM
[22] = second compound 1 µM, first compound 0.1 µM
[23] = second compound 1 µM, first compound 0.316 µM
[24] = second compound 1 µM, first compound 1 µM
[25] = second compound 3.16 µM, first compound 0.00316 µM
[26] = second compound 3.16 µM, first compound 0.01 µM
[27] = second compound 3.16 µM, first compound 0.0316 µM
[28] = second compound 3.16 µM, first compound 0.1 µM
[29] = second compound 3.16 µM, first compound 0.316 µM
[30] = second compound 3.16 µM, first compound 1 µM
[31] = second compound 10 µM, first compound 0.00316 µM
[32] = second compound 10 µM, first compound 0.01 µM
[33] = second compound 10 µM, first compound 0.0316 µM
[34] = second compound 10 µM, first compound 0.1 µM
[35] = second compound 10 µM, first compound 0.316 µM
[36] = second compound 10 µM, first compound 1 µM
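Note: spheroids exposed to compounds for seven days before readout.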

Compound: C=CCn1c(=O)c2cnc(Nc3ccc(N4CCN(C)CC4)cc3)nc2n1-c1cccc(C(C)(C)O)n1 + COC1C(OC(N)=O)C(O)C(Oc2ccc3c(O)c(NC(=O)c4ccc(O)c(CC=C(C)C)c4)c(=O)oc3c2C)OC1(C)C
- IC50 (second compound 0.0316 µM): > 1000 nM
- IC50 (second compound 0.1 µM): > 1000 nM
- IC50 (second compound 0.316 µM): > 1000 nM
- IC50 (second compound 1 µM): > 1000 nM
- IC50 (second compound 3.16 µM): > 1000 nM
- IC50 (second compound 10 µM): > 1000 nM
- viability, T/C [1]: 90.6%
- viability, T/C [2]: 93.2%
- viability, T/C [3]: 96.4%
- viability, T/C [4]: 94.5%
- viability, T/C [5]: 92.1%
- viability, T/C [6]: 101%
- viability, T/C [7]: 95.9%
- viability, T/C [8]: 94.3%
- viability, T/C [9]: 91.9%
- viability, T/C [10]: 107%
- viability, T/C [11]: 105%
- viability, T/C [12]: 99.7%
- viability, T/C [13]: 98.7%
- viability, T/C [14]: 103%
- viability, T/C [15]: 95.9%
- viability, T/C [16]: 106%
- viability, T/C [17]: 109%
- viability, T/C [18]: 103%
- viability, T/C [19]: 91.5%
- viability, T/C [20]: 110%
- viability, T/C [21]: 102%
- viability, T/C [22]: 98.9%
- viability, T/C [23]: 103%
- viability, T/C [24]: 93.1%
- viability, T/C [25]: 107%
- viability, T/C [26]: 95.4%
- viability, T/C [27]: 94.1%
- viability, T/C [28]: 102%
- viability, T/C [29]: 113%
- viability, T/C [30]: 91.9%
- viability, T/C [31]: 105%
- viability, T/C [32]: 104%
- viability, T/C [33]: 101%
- viability, T/C [34]: 96%
- viability, T/C [35]: 94.2%
- viability, T/C [36]: 90%

Compound: CC[C@@]1(O)C(=O)OCc2c1cc1n(c2=O)Cc2cc3c(CN(C)C)c(O)ccc3nc2-1 + COC1C(OC(N)=O)C(O)C(Oc2ccc3c(O)c(NC(=O)c4ccc(O)c(CC=C(C)C)c4)c(=O)oc3c2C)OC1(C)C
- IC50 (second compound 0.0316 µM): 35.2 nM
- IC50 (second compound 0.1 µM): 30.3 nM
- IC50 (second compound 0.316 µM): 30.2 nM
- IC50 (second compound 1 µM): 27.7 nM
- IC50 (second compound 3.16 µM): 23.3 nM
- IC50 (second compound 10 µM): 22.5 nM
- viability, T/C (second compound 0.0316 µM, first compound 0.000316 µM): 125%
- viability, T/C (second compound 0.0316 µM, first compound 0.001 µM): 123%
- viability, T/C [1]: 116%
- viability, T/C [2]: 126%
- viability, T/C [3]: 53.5%
- viability, T/C [4]: 14.7%
- viability, T/C (second compound 0.1 µM, first compound 0.000316 µM): 108%
- viability, T/C (second compound 0.1 µM, first compound 0.001 µM): 111%
- viability, T/C [7]: 104%
- viability, T/C [8]: 113%
- viability, T/C [9]: 47.8%
- viability, T/C [10]: 11.8%
- viability, T/C (second compound 0.316 µM, first compound 0.000316 µM): 116%
- viability, T/C (second compound 0.316 µM, first compound 0.001 µM): 110%
- viability, T/C [13]: 122%
- viability, T/C [14]: 101%
- viability, T/C [15]: 48.2%
- viability, T/C [16]: 11.7%
- viability, T/C (second compound 1 µM, first compound 0.000316 µM): 116%
- viability, T/C (second compound 1 µM, first compound 0.001 µM): 124%
- viability, T/C [19]: 112%
- viability, T/C [20]: 91.7%
- viability, T/C [21]: 44.7%
- viability, T/C [22]: 10.6%
- viability, T/C (second compound 3.16 µM, first compound 0.000316 µM): 112%
- viability, T/C (second compound 3.16 µM, first compound 0.001 µM): 108%
- viability, T/C [25]: 109%
- viability, T/C [26]: 112%
- viability, T/C [27]: 28.4%
- viability, T/C [28]: 11.7%
- viability, T/C (second compound 10 µM, first compound 0.000316 µM): 117%
- viability, T/C (second compound 10 µM, first compound 0.001 µM): 107%
- viability, T/C [31]: 117%
- viability, T/C [32]: 98.9%
- viability, T/C [33]: 29.6%
- viability, T/C [34]: 16.2%

Compound: CCc1c2c(nc3ccc(O)cc13)-c1cc3c(c(=O)n1C2)COC(=O)[C@]3(O)CC + COC1C(OC(N)=O)C(O)C(Oc2ccc3c(O)c(NC(=O)c4ccc(O)c(CC=C(C)C)c4)c(=O)oc3c2C)OC1(C)C
- IC50 (second compound 0.0316 µM): < 3.16 nM
- IC50 (second compound 0.1 µM): < 3.16 nM
- IC50 (second compound 0.316 µM): < 3.16 nM
- IC50 (second compound 1 µM): < 3.16 nM
- IC50 (second compound 3.16 µM): < 3.16 nM
- IC50 (second compound 10 µM): < 3.16 nM
- viability, T/C [1]: 40.8%
- viability, T/C [2]: 16.8%
- viability, T/C [3]: 7.82%
- viability, T/C [4]: 5.58%
- viability, T/C [5]: 4.71%
- viability, T/C [6]: 1.63%
- viability, T/C [7]: 40.5%
- viability, T/C [8]: 14.3%
- viability, T/C [9]: 8.6%
- viability, T/C [10]: 6.16%
- viability, T/C [11]: 3.09%
- viability, T/C [12]: 1.68%
- viability, T/C [13]: 42.7%
- viability, T/C [14]: 15.7%
- viability, T/C [15]: 9.73%
- viability, T/C [16]: 5.82%
- viability, T/C [17]: 4.86%
- viability, T/C [18]: 1.54%
- viability, T/C [19]: 33.4%
- viability, T/C [20]: 14.5%
- viability, T/C [21]: 9.49%
- viability, T/C [22]: 5.81%
- viability, T/C [23]: 3.09%
- viability, T/C [24]: 2.46%
- viability, T/C [25]: 26.4%
- viability, T/C [26]: 11.5%
- viability, T/C [27]: 8.08%
- viability, T/C [28]: 4.59%
- viability, T/C [29]: 2.7%
- viability, T/C [30]: 1.71%
- viability, T/C [31]: 14.7%
- viability, T/C [32]: 11.2%
- viability, T/C [33]: 7.82%
- viability, T/C [34]: 6.39%
- viability, T/C [35]: 3.19%
- viability, T/C [36]: 1.43%

Compound: O=C(c1cc(Cc2n[nH]c(=O)c3ccccc23)ccc1F)N1CCN(C(=O)C2CC2)CC1 + COC1C(OC(N)=O)C(O)C(Oc2ccc3c(O)c(NC(=O)c4ccc(O)c(CC=C(C)C)c4)c(=O)oc3c2C)OC1(C)C
- IC50 (second compound 0.0316 µM): > 10000 nM
- IC50 (second compound 0.1 µM): > 10000 nM
- IC50 (second compound 0.316 µM): > 10000 nM
- IC50 (second compound 1 µM): > 10000 nM
- IC50 (second compound 3.16 µM): > 10000 nM
- IC50 (second compound 10 µM): > 10000 nM
- viability, T/C [3]: 107%
- viability, T/C [4]: 107%
- viability, T/C [5]: 122%
- viability, T/C [6]: 90.8%
- viability, T/C (second compound 0.0316 µM, first compound 3.16 µM): 95.6%
- viability, T/C (second compound 0.0316 µM, first compound 10 µM): 78.8%
- viability, T/C [9]: 93.3%
- viability, T/C [10]: 111%
- viability, T/C [11]: 109%
- viability, T/C [12]: 104%
- viability, T/C (second compound 0.1 µM, first compound 3.16 µM): 93.8%
- viability, T/C (second compound 0.1 µM, first compound 10 µM): 83.7%
- viability, T/C [15]: 95.9%
- viability, T/C [16]: 105%
- viability, T/C [17]: 102%
- viability, T/C [18]: 114%
- viability, T/C (second compound 0.316 µM, first compound 3.16 µM): 101%
- viability, T/C (second compound 0.316 µM, first compound 10 µM): 67.2%
- viability, T/C [21]: 108%
- viability, T/C [22]: 101%
- viability, T/C [23]: 95.5%
- viability, T/C [24]: 118%
- viability, T/C (second compound 1 µM, first compound 3.16 µM): 95.8%
- viability, T/C (second compound 1 µM, first compound 10 µM): 66.9%
- viability, T/C [27]: 111%
- viability, T/C [28]: 90.8%
- viability, T/C [29]: 106%
- viability, T/C [30]: 105%
- viability, T/C (second compound 3.16 µM, first compound 3.16 µM): 91.2%
- viability, T/C (second compound 3.16 µM, first compound 10 µM): 68.1%
- viability, T/C [33]: 104%
- viability, T/C [34]: 111%
- viability, T/C [35]: 106%
- viability, T/C [36]: 96.7%
- viability, T/C (second compound 10 µM, first compound 3.16 µM): 103%
- viability, T/C (second compound 10 µM, first compound 10 µM): 60.2%

— PubChem BioAssay AID1963838 (Molecular Pharmacology Branch, DTP, NCI, 2024)
